* marks the point of attachment. BODIPYFLEthylmaleimide = Cc1cc(C)n2c1C=C1C=CC(CCC(=O)NCCN3C(=O)CC(*)C3=O)=[N+]1[B-]2(F)F
How the values were obtained:
[1] = target: T1, CC2 peptide (minimal oligomerization domain of NEMO) (Mus musculus, UniProt O88522); assay: Fluorescence anisotropy titration with CC2 peptide; type: binding, murine
T1 construct: made in house; host or cells: chemical solid-phase synthesis (Fmoc/tBu), no expression host
T1 sequence (O88522 253-287): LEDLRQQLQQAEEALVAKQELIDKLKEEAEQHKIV
Method: (A) Direct titration of BODIPY-Ant-CC2 (1 μM) with CC2 by fluorescence anitropy. The concentration of CC2 was determined by amino acid analysis. Anisotropy values of BODIPY-Ant-CC2 in milliunits (mA) were plotted against an increasing concentration of the CC2 peptide. […] The two dashed lines represent a stoichiometric titration and intersect at an CC2 concentration of […]. Given the 1 μM concentration of the BODIPY-Ant-CC2, this gives a complex stoechiometrie of 0.8. (B) Direct titration of BODIPY-Ant-LZ (0.1 μM) with CC2 by fluorescence anitropy. […]
Anisotropy measurements were performed with a PTI QUANTAMASTER™ fluorometer equipped with polarizers for the excitation and emission beams. […] Steady-state fluorescence anisotropy was expressed as millianisotropy (mA) and was calculated according to the equations: (1) A=(IVV−GIVH)/(IVV+2GIVH); (2) G=IHV/IHH.; where A is anisotropy, G is a correction factor for wavelength-dependent distortion and I is the fluorescence intensity component (subscript referring to the vertical and horizontal positioning at the excitation and emission polarizers, respectively). […] The dissociation constant parameter was estimated by globally fitting the anisotropy data to binding isotherm equation as described in Agou et al. (J Biol Chem. 2004 Jul. 2; 279(27):27861-9) using KALEIDAGRAPH™ nonlinear regression software (Synergy Software, reading PA). […]

[2] = test system: LPS-induced NF-κB activation; assay: More stringent NF-κB inhibition assay, second procedure: peptide internalization, washing, 24 h growth, then LPS; type: cell-based, murine; settings: 10 μM peptide, LPS 5 h after 24 h growth
Source text: Left panels show a helical wheel diagram of CC2 (A) and LZ (B) peptides. The view is from the top the molecule. The (a) through (g) positions, which are an essential feature of coiled coil sequence (Vinson, 2002, Mol. Cell. Biol.) represent sequential positions in each peptide sequence. The first (a) and fourth (d) positions that are generally occupied by hydrophobic amino acids constitute the hydrophobic core for parallel as well as antiparallel-coiled coils. Mutations that were introduced in (a) positions of the CC2 variant (BODIPY-Ant-CC2 (Mu); shown as residues 6-40 of SEQ ID NO:3, with glycine mutations corresponding to residues 6-40 of SEQ ID NO:5) or in (d) positions of the LZ variant (BODIPY-Ant-(Mu) are shown. In the right panels, 70Z3-C3 cells were incubated for 2 hours in the absence (control) or in the presence of 10 μM of cell permeable wild type (BODIPY-Ant-CC2 (WT)) or mutant (BODIPY-Ant-CC2 (Mu)) CC2 peptides (A) or wild type (BODIPY-Ant-LZ (WT)) or mutant (BODIPY-Ant-(Mu)) LZ peptides (B). The cells were then extensively washed to remove the excess peptide which had not been internalized and the cells were then diluted three times and allowed to grow for 24 hours before treatment for 5 hours with (+) or without LPS (−). NF-κB activity was measured using the β-galactosidase assay. Error bars represent the standard deviation of two independent experiments.
(A) Sequence alignment of the NEMO-derived LZ (residues 301-336 of SEQ ID NO: 12) and the GCN4 peptides (residues 23-55 of SEQ ID NO:8). Both coiled-coil motifs were aligned using clustalX. Identical and similar amino acid residues (shaded) are indicated by (!) or (*), respectively. (B) Overview and helical wheel diagram of the GCN4 coiled-coil (top view). The amino-acid sequence of GCN4 is shown with its corresponding [a-g] positions and residues that differ from the corresponding NEMO-derived LZ sequence are boxed according to their degree of conservation. Identical (open square) and similar residues (open triangle) are indicated. […] NF-κB activity was measured using the b-galactosidase assay. […]

[3] = test system: LPS-induced NF-κB activation; assay: NF-κB inhibition assay, first procedure: LPS-induced NF-κB dependent β-galactosidase reporter in 70Z/3-C3 cells; type: cell-based, murine
Method: The resulting cell line, 70Z3-C3, was incubated for 2 hours in the absence or in the presence of 20 μM of antennapedia peptide (Ant), or BODIPY-labeled antennapedia peptide (BODIPY-Ant), or BODIPY-labeled antennapedia peptide coupled to CC2 (BODIPY-Ant-CC2) or LZ (BODIPY-Ant-LZ) peptides, After peptide internalization, cells were treated for 5 hours with LPS (3 μg/ml, (+) in left panel) or untreated (right panel and (−) in left panel) and the NF-κB activity was measured by β-galactosidase assay. Error bars represent the standard deviation of three separate experiments. (B) Concentration dependence of inhibition of LPS-induced NF-κB activation by BODIPY-Ant-CC2 peptide (left panel) or BODIPY-Ant-LZ peptide (right panel). Cells were treated as in (A) but with different concentration of peptide as indicated. The potential of each peptide to inhibit LPS-induced NF-κB activation was measured by determining the IC50 value that correspond to 50% inhibition of LPS-induced NF-κB activation as compared to the control (no peptide) (C). (D) Effect of the N-fusion sequence of antennapedia on the inhibition of NF-κB activation. Control (no peptide) or CC2, or LZ peptides, with (BODIPY-ANT-CC2, BODIPY-ANT-LZ) or without the antennapedia sequence at the N-terminus (CC2, LZ) were incubated for 2 hours with 70Z3-C3 cells followed with (+) or without (−) the LPS-treatment for 3 hours. NF-κB activity was then measured by β-galactosidase assay.
In a first procedure 2.2×10^5 70Z/3-C3 cells in 220 μl of RPMI 1640 supplemented with 10% fetal calf serum (FCS) and 50 μM β-mercaptoethanol were placed in a 96-well plate and incubated with various concentrations of peptide (0 to 20 μM) at 37° C. in 5% CO2 incubator. After two hours an equal portion (100 μl) of each cell sample transferred in two wells containing each 10^5 cells. One aliquot of cells was then treated for 5 hours with lipopolysaccharides from Salmonella abortus (Sigma) at 0.5 μg/ml final concentration, and the other one left-treated. After 5 hours, cells were centrifuged at 400×g for 5 min at room temperature and the cell pellets were washed three times with cold PBS (250 μl) by centrifugation. Cells were then lysed in the lysis buffer (25 mM tris-phosphate buffer at pH 7.8 containing 8 mM magnesium chloride, 1 mM dithioerythreitol, 1% Triton X-100, 15% glycerol and a protease inhibitor mixture (Roche)), and samples were centrifuged at 4° C. for 20 min to clarify the lysate. The supernatant was then kept on ice, and 30 μl was then assayed to measure the β-galactosidase activity with a plate luminometer (Berthold) using the GALACTON-STAR™ as chemiluminescent substrate (BD Biosciences Clontech, Bronstein et al., 1989). Background of reaction was measured by mixing for 1 hour 30 μl of lysis buffer with the reaction buffer (196 μl) and the GALACTON-STAR™ substrate (4 μl) provided by BD Biosciences. In a second procedure and a more stringent assay, 70Z/3-C3 cells (2.2×105 in 220 μl medium) were centrifuged at 400×g at room temperature after peptide internalization for 2 hours, and cell pellets were washed three times with 200 μl of PBS by centrifugation. Cells were then diluted three times with complete medium, and allowed to grow for at least 24 hours. The following steps are identical to the first procedure.
To analyze the inhibition potential of LPS-induced NF-κB activation by cell permeable BODIPY-Ant-CC2 and BODIPY-Ant-LZ peptides, the present inventors stably transfected the murine pre-B 70Z3 cell line with p12XlacZ-kB, which bears the β-galactosidase reporter gene under the control of the NF-κB transcription factor.

70Z/3-C3 cells = assay: FACS analysis of cellular uptake of BODIPY-labelled peptides; settings: 0.2, 2 or 20 μM, 5 h, 37° C.
Method: (A) Cellular delivery of NEMO peptides mediated by conjugation with the Antennapedia peptide.
0.5×10^6 70Z/3-C3 cells in 0.5 ml were incubated at 37° C. for different times and with various concentrations of peptides as indicated in the Figure legends. The cell suspension was centrifugated at 1,000×g at room temperature and the cell pellet was then washed three times with PBS buffer (1 ml), and finally was resuspended with 500 μl of PBS buffer containing 0.1% sodium azide. Fluorescence analysis was performed with a FACSCalibur (BD Biosciences) and a minimum of 15,000 events per sample was selected. All experiments were performed in duplicates.

[4] = Binding of NLM peptides, Hill coefficient calculation of cooperativity indices
Source text: The present inventors compared NLM-DR to the corresponding NLM peptide by measuring the respective cooperativity indices, which evidence an advantage of NLM-DR mutated peptide over the wild-type.
The calculation of the “cooperativity indice” by means of Hill coefficient is based on the following formula Boundmax×L^n/(KD^n+L^n)
Wherein • Boundmax is the maximum concentration of the bound ligand, • L is the concentration of the free ligand, • n is the cooperativity indice and • KD, is the affinity constant of the ligand by the protein.

[5] = Circular dichroism studies of helix stability; type: physicochemical
Source text: From circular dichroism studies (CD), it appears that CC2 and LZ peptides adopt a helicoidal structure, depending on their concentration. […] RMN and Rayon X Diffraction studies have confirmed the structure of CC2.

Affinity relative to wild-type NLM peptide, without accounting for cooperativity [4] [times] | Substance | Kd [1] [µM] | Binding stoichiometry of complex with CC2 ([1]; 1 μM BODIPY-Ant-CC2 titrated with CC2) | Reduction of NF-κB activation [2] [fold] | LPS-induced NF-κB activation in presence of peptide ([3]; 20 μM peptide 2 h, LPS (3 μg/ml) 5 h, 70Z3-C3 cells) | Reduction of NF-κB activity as compared with a control peptide ([3]; 20 μM peptide, B lymphocytes stimulated by LPS) [%] | IC50 ([3]; 70Z3-C3 cells, peptide 2 h, then LPS 5 h, β-galactosidase assay, read-out: IC50, 50% inhibition of LPS-induced NF-κB activation as compared to the control (no peptide)) [µM] | Dependency of intracellular concentration on incubated concentration (70Z/3-C3 cells) | Helix stability by circular dichroism [5]
 | Ac-C(BODIPYFLEthylmaleimide)RQIKIWFQNRRMKWKKSKGMQLEDLRQQLQQAEEALVAKQELIDKLKEEAEQHKIV-NH2 [BODIPY-Ant-CC2 (WT)] | 15.2 | 0.8 | 1.7 | decreased significantly | 70 | 22 | linear dependancy | 
75 | LKAQADIYKARFQAERHAREK [NLM-DR] |  |  |  |  |  |  |  | helix more stable than the wild-type peptide
